# From patent US4963588A, “Use of ubenimex for treating myelodysplastic syndrome” (priority 1989, dated 1990)
# Where two headings read alike, the source gives them in different places.
# What was measured:
# [1] = Acute toxicity in mouse; conditions: in vivo, Mouse (ICR)
# [2] = Acute toxicity in rat; conditions: in vivo, Rat (SD)
# [3] = Acute toxicity in beagle; conditions: dog, in vivo, male, oral, * = maximum administration level
# [4] = system: RAEB or RAEB-T patients (MDS); experiment: Oral administration of the ubenimex capsule to RAEB or RAEB-T (MDS) patients, response observed; assay type: in vivo; set-up: key to Response: CR: complete remission; GR: good result
# [5] = in vivo
# [6] = system: aminopeptidase B; conditions: cf. U.S.P. No. 4,189,604; cited from earlier work
# [7] = system: tumor; conditions: cf. Japanese Pat. Publication (A2) No. 9487/1985; cited from earlier work
# [8] = background statement; cited from earlier work
# [9] = Toxicity, general statement; conditions: acute toxicity table given for reference
# [10] = patient 1 (RAEB-T), 30mg/day oral
# [11] = patient 2 (RAEB), 30mg/day oral
# [12] = patient 3 (RAEB), 30mg/day oral
# [13] = patient 4 (RAEB), 30mg/day oral
# [14] = patient 5 (RAEB), 30mg/day oral
# [15] = patient 6 (RAEB), 30mg/day oral
structure (smiles),measurement,setting,value
"CC(C)C[C@H](NC(=O)[C@@H](O)[C@H](N)Cc1ccccc1)C(=O)O [ubenimex, N-[(2S, 3R)-3-amono-2-hydroxy-4-phenylbutyryl]-(L)-leucine]",LD50,"[1]; ip, female, intraperitoneal",190 mg/kg
same,LD50,"[1]; ip, male, intraperitoneal",190 mg/kg
same,LD50,"[1]; po, female, * = maximum administration level",> 4000 mg/kg
same,LD50,"[1]; po, male, * = maximum administration level",> 4000 mg/kg
same,LD50,"[1]; sc, female, subcutaneous",1900 mg/kg
same,LD50,"[1]; sc, male, subcutaneous",1300 mg/kg
same,LD50,"[2]; ip, first line, sex female, intraperitoneal",900 mg/kg
same,LD50,"[2]; ip, second line, female, intraperitoneal",780 mg/kg
same,LD50,"[2]; po, first line, sex female, * = maximum administration level",> 2000 mg/kg
same,LD50,"[2]; po, second line, female, * = maximum administration level",> 2000 mg/kg
same,LD50,"[2]; sc, first line, sex female, subcutaneous",1900 mg/kg
same,LD50,"[2]; sc, second line, female, subcutaneous",2100 mg/kg
same,LD50,[3],> 1200 mg/kg
same,Effectiveness as a remedy for MDS,[4]; 30mg/day oral,highly effective
same,RAEB cases with complete remission,[4]; among six effective cases,three
same,RAEB cases with good responses,[4]; among six effective cases,two
same,RAEB-T cases with complete remission,[4]; among six effective cases,one
same,Effect on cytopenia,"[4]; anemia, thrombocytopenia and neutropenia",improve cytopenia
same,Amount of transfusion to the patients,"[4]; human, in vivo",reduced or sometimes become unnecessary
same,Effect on excess blast,"[4]; human, in vivo",reduce excess blast
same,Effect on myelodysplasia,"[4]; human, in vivo",improve myelodysplasia
same,Patients with good results,"[4]; of seven RAEB or RAEB-T patients, 30mg/day oral",six
same,Days till response,[4]; [10],34 days
same,Response,[4]; [10],CR
same,Peripheral blood Granulocytes No.,"[4]; patient 1 (RAEB-T), 30mg/day oral, after treatment (BT 1.11)",2.94e+09 L⁻¹
same,Peripheral blood Hemoglobin,"[4]; patient 1 (RAEB-T), 30mg/day oral, after treatment (BT 10.5)",13.6 g/dL
same,Bone marrow Blast,"[4]; patient 1 (RAEB-T), 30mg/day oral, after treatment (BT 22.8)",3.2%
same,Peripheral blood Platelets,"[4]; patient 1 (RAEB-T), 30mg/day oral, after treatment (BT 350)",3.72e+11 L⁻¹
same,Duration of response,"[4]; patient 1 (RAEB-T), 30mg/day oral, observation continued",8 week
same,Days till response,[4]; [11],28 days
same,Response,[4]; [11],CR
same,Peripheral blood Granulocytes No.,"[4]; patient 2 (RAEB), 30mg/day oral, after treatment (BT 0.62)",2.44e+09 L⁻¹
same,Peripheral blood Hemoglobin,"[4]; patient 2 (RAEB), 30mg/day oral, after treatment (BT 7.9)",14.4 g/dL
same,Bone marrow Blast,"[4]; patient 2 (RAEB), 30mg/day oral, after treatment (BT 13.2)",5.2%
same,Peripheral blood Platelets,"[4]; patient 2 (RAEB), 30mg/day oral, after treatment (BT 81)",2.09e+11 L⁻¹
same,Duration of response,"[4]; patient 2 (RAEB), 30mg/day oral, ubenimex administration suspended",11 week
same,Days till response,[4]; [12],97 days
same,Response,[4]; [12],CR
same,Peripheral blood Granulocytes No.,"[4]; patient 3 (RAEB), 30mg/day oral, after treatment (BT 0.99)",1.75e+09 L⁻¹
same,Bone marrow Blast,"[4]; patient 3 (RAEB), 30mg/day oral, after treatment (BT 5.2)",0.4%
same,Peripheral blood Hemoglobin,"[4]; patient 3 (RAEB), 30mg/day oral, after treatment (BT 6.8)",12.3 g/dL
same,Peripheral blood Platelets,"[4]; patient 3 (RAEB), 30mg/day oral, after treatment (BT 12)",9.6e+10 L⁻¹
same,Duration of response,"[4]; patient 3 (RAEB), 30mg/day oral, observation continued",21 week
same,Days till response,[4]; [13],175 days
same,Response,[4]; [13],CR
same,Peripheral blood Granulocytes No.,"[4]; patient 4 (RAEB), 30mg/day oral, after treatment (BT 2.92)",2.35e+09 L⁻¹
same,Bone marrow Blast,"[4]; patient 4 (RAEB), 30mg/day oral, after treatment (BT 6.0)",2.0%
same,Peripheral blood Hemoglobin,"[4]; patient 4 (RAEB), 30mg/day oral, after treatment (BT 7.6)",11.0 g/dL
same,Peripheral blood Platelets,"[4]; patient 4 (RAEB), 30mg/day oral, after treatment (BT 30)",8.2e+10 L⁻¹
same,Duration of response,"[4]; patient 4 (RAEB), 30mg/day oral, observation continued",28 week
same,Days till response,[4]; [14],134 days
same,Response,[4]; [14],GR
same,Peripheral blood Granulocytes No.,"[4]; patient 5 (RAEB), 30mg/day oral, after treatment (BT 1.22)",2.44e+09 L⁻¹
same,Peripheral blood Hemoglobin,"[4]; patient 5 (RAEB), 30mg/day oral, after treatment (BT 8.5)",8.7 g/dL
same,Peripheral blood Platelets,"[4]; patient 5 (RAEB), 30mg/day oral, after treatment (BT 21)",1.76e+11 L⁻¹
same,Duration of response,"[4]; patient 5 (RAEB), 30mg/day oral, observation continued",32 week
same,Days till response,[4]; [15],67 days
same,Response,[4]; [15],GR
same,Peripheral blood Granulocytes No.,"[4]; patient 6 (RAEB), 30mg/day oral, after treatment (BT 1.45)",2.02e+09 L⁻¹
same,Peripheral blood Hemoglobin,"[4]; patient 6 (RAEB), 30mg/day oral, after treatment (BT 10.9)",12.2 g/dL
same,Peripheral blood Platelets,"[4]; patient 6 (RAEB), 30mg/day oral, after treatment (BT 42)",1.86e+11 L⁻¹
same,Duration of response,"[4]; patient 6 (RAEB), 30mg/day oral, observation continued",20 week
same,Accumulated toxicity upon repeated administration,[5],low accumulated toxicity
same,Inhibition of aminopeptidase B,[6],inhibits aminopeptidase B
same,Antitumor activities,[7],has a antitumor activities
same,Toxicity,[8],low toxicity
same,Toxicity,[9],low toxicity
